{"source": "patent US20250312365A1", "about": "“METHODS FOR INHIBITION OF SQUAMOUS CARCINOMA CELLS USING CERAMIDE MODULATORS” (The Trustees of Indiana University, priority 2024, published 2025)", "key": {"[1]": {"system": "tongue squamous carcinoma cells (SCC4)", "experiment": "WST-1 proliferation assay in SCC4 cells", "assay_type": "cell-based, human", "details": "0.1 μg/ml and 1 μg/ml", "description": "(§1) In specific examples, colorimetric assays can be used to assess cellular viability and proliferation of cell cultures, such as MTT, WST-1, and resazurin assays. See, e.g., Präbst et al., Methods Mol Biol. 2017:1601:1-17.\n(§2) Various cell lines were exposed to PGDHC, including human gingival squamous carcinoma cells (OECM1), tongue squamous carcinoma cells (SCC4, SCC9), and healthy human gingival epithelial control cells (OBA9) in vitro."}, "[2]": {"system": "tongue squamous carcinoma cells (SCC9)", "experiment": "Cell viability/proliferation assay (WST-1) in SCC9 cells", "assay_type": "cell-based, human", "details": "0.1 μg/ml and 1 μg/ml; WST-1", "description": "as §1, §2\n(§3) LCL521 is a dose-dependent acid ceramidase inhibitor. Comparison of the concentration-dependent effects of an acid ceramidase inhibitor, LCL521 (MedChemExpress®), and the bacterial-isolated a15:0-15:0PE phospholipid on the viability of healthy human epithelial, OBA9, and oral squamous cancer cell lines, OECM1 and SCC9, in vitro was evaluated. […] (FIG. 15A). […] (FIG. 15B)."}, "[3]": {"system": "healthy human gingival epithelial control cells (OBA9)", "experiment": "Cell viability/proliferation assay (WST-1) in healthy OBA9 cells", "assay_type": "cell-based", "details": "0.1 μg/ml and 1 μg/ml; WST-1", "description": "as §1, §2, §3"}, "NFkB": {"system": "NFkB", "experiment": "NFkB mRNA expression in OECM1 cells", "assay_type": "cell-based, human", "description": "(§4) NF-kB, MMP-2, ADAM-17, and IL6 are implicated in the degradation of the expression of genes involved in the cell basement membrane and extracellular matrix of oral squamous cell carcinoma. Accordingly, the expression of NFkB, MMP2, ADAM17, and IL6 in OECM1 cells following exposure to 0.1 μg/ml PGDHC and 1 μg/ml PGDHC was determined.\n(§5) Sphingosine-1-phosphate (S1P) sphingolipid plays an essential role in the survival, migration, and degradation of the basement membrane and extracellular matrix of oral squamous cell carcinoma (Yura et al., Cancers (Basel). 2020 August; 12(8): 2062). To determine whether PGDHC can inhibit such properties, the combined effects of PGDHC and S1P on OECM1 gene expression was tested in vitro."}, "ADAM17": {"system": "ADAM17", "experiment": "ADAM17 mRNA expression in OECM1 cells", "assay_type": "cell-based, human", "details": "in combination with S1P", "description": "as §4, §5"}, "IL6": {"system": "IL6", "experiment": "IL6 mRNA expression in OECM1 cells", "assay_type": "cell-based, human", "description": "as §4, §5"}, "OECM1 cells": {"system": "OECM1 cells", "experiment": "Scratch wound healing migration assay, OECM1", "assay_type": "cell-based, human", "details": "compared to sham control", "description": "In vitro assays can be used to evaluate cell migration, including scratch-wound assays and wound healing assays, as in Xu et al., Exp Ther Med. 2023 October; 26(4):460. See also Liang et al., Nat Protoc. 2007;2(2):329-33 and Martinetti & Ronzato, Methods Mol Biol. 2020:2109:225-229. Additionally, the genetic components of cell migration and invasion can be evaluated. For example, MMP-2, ADAM-17 and IL-6 are associated with degradation of the basement membranes and extracellular matrix in OECM-1 cells. See, e.g., Yamada et al., J Cell Mol Med. 2023 May; 27(9):1290-1295.\nA scratch wound healing assay was performed according to known methods to assess the effects of PGDHC on the migration of human oral squamous cell carcinoma cells. […] The scratch wound healing assay was validated with a transwell migration assay.\nA wound healing migration assay was also conducted to determine the effects of S1P alone or in combination with PGDHC on cell migration. See Yamada et al., J Cell Mol Med. 2023 May; 27(9):1290-1295."}, "p-STAT3": {"system": "p-STAT3", "experiment": "Western blot of p-STAT3 in OECM1 cells", "assay_type": "cell-based, human", "details": "time course 15 minutes to 24 hours, compared to sham control", "description": "To determine the effect of PGDHC on cell markers involved in metastasis, the protein levels of p-STAT3, EMT markers, E-cadherin, N-cadherin, and Vimentin in OECM1 cells following in vitro exposure to PGDHC were determined by Western blot assay."}, "[4]": {"system": "ceramide and dihydroceramide in OECM1 cells", "experiment": "Intracellular ceramide and dihydroceramide by mass-spectrometry in OECM1 cells", "assay_type": "cell-based, human", "description": "Cellular levels of ceramides and dihydroceramides, and cellular accumulation or increase thereof, can be determined according to known methods, such as mass spectrometry. For example, Scherer et al., J Lipid Res. 2010 July; 51(7): 2001-2011 and Smeden et al., J Lipid Res. 2011 June; 52(6):1211-1221 describe LC/MS/MS methods for determining ceramide levels in cells.\nTo assess intracellular ceramide levels, the concentration of ceramide and dihydroceramide in OECM1 cells exposed to PGDHC was measured using mass-spectrometry. […] No effect of 0.1 μg/ml of PGDHC on ceramide and dh-ceramide concentrations in OECM1 cells was observed. (FIG. 10C)"}, "[5]": {"system": "healthy oral epithelial cells", "experiment": "ASAH1 expression and dihydroceramide accumulation in healthy oral epithelial cells", "assay_type": "cell-based", "details": "preliminary findings", "description": "Applicant performed in vitro studies to determine the effect of PEDHC and PGDHC on the proliferation of oral cancer cells via downregulation of acid ceramidase, thereby contributing to the accumulation of intracellular ceramides. […] Furthermore, PGDHC diminished metabolites in at least five different cell survival metabolomic pathways in OSCC cells but not in healthy cells. The metabolomic pathways included folate metabolism, arginine and proline metabolism, triacylglycerol biosynthesis de novo, mitochondrial election transport chain, and glycine and serine metabolism. […] In contrast to current approaches for undermining the viability of oral squamous cell carcinoma and treating OSCC, the present disclosure relates in some aspects to methods and compositions for selectively interfering with any of the growth, viability, proliferation, migration, and metastasis of oral squamous cell carcinoma."}}, "note": "“Also recorded” adds a separate entry of the source.", "data": [{"substance": "phosphoglycerol dihydroceramide [PGDHC]", "values": [{"measurement": "proliferation of SCC4 cells", "setting": "[1]", "value": "did not have an observable effect"}, {"measurement": "proliferation of SCC9 cells", "setting": "[2]", "value": "did not have an observable effect"}, {"measurement": "proliferation of healthy control OBA9 cells", "setting": "[3]", "value": "did not have a detectable effect; also recorded: did not have an observable effect"}, {"measurement": "expression of NFkB mRNA in OECM1 cells", "setting": "NFkB; 1 μg/ml", "value": "significantly inhibited"}, {"measurement": "expression of NFkB mRNA in OECM1 cells exposed to S1P", "setting": "NFkB; in combination with S1P", "value": "significantly inhibited"}, {"measurement": "ADAM17 mRNA levels in OECM1 cells exposed to S1P", "setting": "ADAM17", "value": "a significant effect was not observed"}, {"measurement": "expression of IL6 mRNA in OECM1 cells", "setting": "IL6; 1 μg/ml", "value": "significantly inhibited"}, {"measurement": "expression of IL6 mRNA in OECM1 cells exposed to S1P", "setting": "IL6; in combination with S1P", "value": "significantly inhibited"}, {"measurement": "OECM1 migration, scratch wound healing assay", "setting": "OECM1 cells; 1 μg/ml", "value": "significantly inhibited"}, {"measurement": "S1P-mediated wound-healing migration of OECM1", "setting": "OECM1 cells; in combination with S1P", "value": "dramatically inhibited"}, {"measurement": "levels of p-STAT3 protein in OECM1 cells", "setting": "p-STAT3", "value": "no effect"}, {"measurement": "ceramide and dh-ceramide concentrations in OECM1 cells", "setting": "[4]; 0.1 μg/ml", "value": "No effect"}, {"measurement": "intracellular concentration of ceramide C20:0, C26:0 and C26:1", "setting": "[4]; 1 μg/ml, OECM1 cells", "value": "significantly elevated"}, {"measurement": "intracellular concentration of dihydroceramide dhC14:0, dhC16:0, dhC18:0, dhC20:0, dhC20:1, dhC22:1, dhC22:0, dhC24:1, dhC24:0, dhC26:1", "setting": "[4]; 1 μg/ml, OECM1 cells", "value": "significantly elevated"}, {"measurement": "total intracellular concentration of dihydroceramides", "setting": "[4]; 1 μg/ml, OECM1 cells, compared to ceramides", "value": "significantly elevated; also recorded: led to the accumulation"}, {"measurement": "accumulation of C16:0 dihydroceramide (dh-C16:0)", "setting": "[4]; OECM1 cells", "value": "promotes the accumulation"}, {"measurement": "inhibition of ASAH1 expression and accumulation of dihydroceramide in healthy oral epithelial cells", "setting": "[5]", "value": "not observed"}]}]}
